In patent EP1049466B1, “CARBONIC ANHYDRASE INHIBITOR FOR INCREASING OXYGEN TENSION IN THE OPTIC NERVE AND RETINA” (Stefansson, Einar, priority 1998, dated 1999):

Columns and labels:
[1] = test system: optic nerve; assay: Oxygen tension of optic nerve (ONPO2), polarographic electrode in the vitreous humour 0.5 mm over the optic disc of anaesthetised pigs; format: in vivo, Danish agricultural pigs (landrace)
[2] = Continuous arterial blood pressure recording in the experimental pigs; format: in vivo, Danish agricultural pigs (landrace); conditions: after intravenous injection of 500 mg (Figure 7)
Method: Danish agricultural pigs (landrace), 25-33 kg in weight and brought up in specific pathogen free environment, were used. Their treatment was supervised by a veterinarian and followed the decrees of the ARVO Statement for the use of animals in ophthalmic and vision research. All experiments were conducted during daytime. The pigs were anaesthetised with midazolam (dormicum®) and ketamine followed by intravenous application of 250 mg mebumal, fentanylum (Haldid®, Jansen Cilag), 0.5 mg an hour, pancuron bromide (Pavulon®, Organon Technica, Sweden) 16 mg an hour, mebumal (Hospital Pharmacies, Denmark) 50 mg per ml as needed and atropine as needed. The right pupil was dilated with 1% tropicamide eye drops (Mydriacyl® and 2.5% phenylephrine eye drops. A arterial line was placed in a femoral artery for continuous measurement of blood pressure and intermittent blood gas analysis. A venous line was placed in a femoral vein for continuous infusion of the anaesthetics and saline as needed. A rectal thermoprobe provided continuous reading of body temperature.
Arterial blood samples were obtained at regular intervals and arterial PO2, pH and PCO2 were measured with a ABL 605 blood gas analyser (Radiometer, Denmark) (table 1). Arterial blood pressure, electrocardiogram and rectal temperature were monitored continuously and it was verified that these values were within normal limits. […]

[3] = intravenous administration; cited from earlier work
[4] = cited from earlier work
[5] = intravenous; cited from earlier work
[6] = oral; blue field entopic technique; cited from earlier work

Molecule	ONPO2 after injection ([1]; after 500 mg intravenous injection, anaesthetised pigs, mean ± SD) [mmHg]	ONPO2 before injection ([1]; baseline before 500 mg intravenous injection, anaesthetised pigs, mean ± SD) [mmHg]	dose dependence of the effect on ONPO2 ([1]; intravenous, dorzolamide effect seen with 6 to 500 mg (Figures 4 and 8))	raised the optic nerve oxygen tension by ([1]; summary over the doses given, anaesthetised pigs, n=4 each, p=0.046 (dorzolamide), p=0.005 (acetazolamide))	arterial blood pressure [2]	cerebral blood flow [3]	flow velocity in the intracranial arteries ([4]; in vivo)	flow velocity in the ophthalmic artery ([4]; in vivo)	ocular pulsatile blood flow ([4]; mainly originating from the choroidal circulation)	retinal blood flow [5]	macular blood flow [6]	ONPO2 in response to breathing 5.19% CO2 ([1]; breathing 5.19% CO2 and 19.9% O2 (N2 to balance), n=4, p<0.001) [mmHg]	ONPO2 before breathing 5.19% CO2 ([1]; breathing 20% O2, n=4) [mmHg]
CC(=O)Nc1nnc(S(N)(=O)=O)s1 [acetazolamide]	30.9± 10.0	23.6± 9.5	dose dependent	15-35%	transient lowering	increased	increased	decrease	decrease	increased	no effect	–	–
CO2	–	–	–	–	–	–	–	–	–	–	–	28.9 ± 3.6	20.8 ± 5.6
